# Marks after values point to notes of the source that are not given here.
# Tests used:
# dairy goat sperms = assay: Sperm viability and motility by CASA semen assisted analysis during preservation at 4 degrees C.; assay type: cell-based
# Procedure: 1) prepare base diluent: add 30.3 g/L Tris, 16.0 g/L citric acid, 6.4 g/L glucose, 6.4 g/L D-fructose, 2.5 g/L trehalose, 1.0 g/L BSA and 3.75 g/L soybean lecithin into distilled water to 1 L, dissolve in a water bath for 1 hour at 37 degrees C., filter and sterilize, and then add 1 million IU/L penicillin and 1 million IU/L streptomycin; select semen with motility more than 80% for preservation, and keep diluent warm in a water bath at 37 degrees C. before semen dilution; gradually dilute at the dilution ratio (add the diluent into each group of semen along the tube wall during the operation), dilute the semen with the diluent at 1:1 and stand for 3 minutes, then dilute the semen with the diluent at 1:3 and stand for 3 minutes, and let the ratio of semen to diluent reach 1:7 (keep the temperature at 33-35 degrees C. during dilution); bind a centrifuge tube containing the diluted semen with a rubber band and put the centrifuge tube into a beaker containing isothermal water, keep the centrifuge tube vertical and the water level in the beaker higher than the diluent level of in the centrifuge tube, place for 1 hour at room temperature, put the beaker into a refrigerator at 4 degrees C., keep the cooling rate at 8-10 degrees C./h, and shake the centrifuge tube every 8 hours to prevent the sperms from accumulating, sinking to bottom and resulting in death;
# 2) take 5 μL of semen on the days 0, 1, 3 and 5 of semen preservation, put the semen on slides, preheat an objective table and perform microscopic examination at 37 degrees C., and detect semen motility and viability by Meilan CASA semen assisted analysis system; select at least five random fields of view for determination, with a minimum semen count of 200 in each field; the ratio of number of live sperms to total number of sperms is sperm viability, and the ratio of number of linearly moving sperms to total number of sperms is sperm motility. Average the results, and record the test data (see Table 1);
# (§1) 1) add different concentrations of gamma-aminobutyric acids into a tupping ram semen base diluent, and take a group without gamma-aminobutyric acid added as the control group; take a group with gamma-aminobutyric acid added as the experimental group, the addition concentrations are respectively 0.5 g/L, 1.0 g/L, 1.5 g/L and 2.0 g/L, and six duplications exist in each group; screen out the optimal concentration of gamma-aminobutyric acid according to semen quality indexes, set the optimal concentration to T group, and detect the semen membrane and acrosome integrity, various antioxidant enzyme activities and ROS content change after adding the optimal concentration of gamma-aminobutyric acid;
# [1] = Sperm plasma membrane integrity (PMI) by SYBR-14/PI fluorescence staining; assay type: cell-based, dairy goat
# Text: as §1
# tupping ram sperms = assay: Sperm acrosome integrity (CGI) by FITC-PNA fluorescence staining; assay type: cell-based, dairy goat
# Text: as §1
# sperms = assay: Antioxidant indexes of sperms (T-AOC, SOD, GSH-Px, MDA, CAT, ROS) by Solarbio kits; assay type: cell-based, dairy goat
# Text: as §1
# [2] = 0.5 g/L in base diluent, Day 5 at 4 degrees C.
# [3] = 1.0 g/L in base diluent, Day 5 at 4 degrees C.
# [4] = 1.5 g/L in base diluent, Day 5 at 4 degrees C.
# [5] = 2.0 g/L in base diluent, Day 5 at 4 degrees C.
# [6] = experimental group, day 5 of preservation at 4 degrees C.
# [7] = optimal concentration (T group), day 3 of preservation at 4 degrees C., P<0.05
# [8] = preservation day not given, P<0.05
smiles,measurement,setting,value
"NCCCC(=O)O [gamma-aminobutyric acid, Gamma-aminobutyric acid]",Semen motility %,"dairy goat sperms; 0.5 g/L in base diluent, Day 0",81.36 ± 2.05%
same,Sperm viability %,"dairy goat sperms; 0.5 g/L in base diluent, Day 0",84.12 ± 2.15%
same,Semen motility %,dairy goat sperms; [2],50.69 ± 1.05^b %
same,Sperm viability %,dairy goat sperms; [2],52.45 ± 1.22^b %
same,Sperm motility compared with other addition groups,dairy goat sperms; 1 g/L,higher than those in other addition groups
same,Sperm viability compared with other addition groups,dairy goat sperms; 1 g/L,higher than those in other addition groups
same,Semen motility %,"dairy goat sperms; 1.0 g/L in base diluent, Day 0",81.36 ± 2.05%
same,Sperm viability %,"dairy goat sperms; 1.0 g/L in base diluent, Day 0",84.12 ± 2.15%
same,Semen motility %,dairy goat sperms; [3],53.69 ± 0.84^a %
same,Sperm viability %,dairy goat sperms; [3],56.49 ± 1.32^a %
same,Semen motility %,"dairy goat sperms; 1.5 g/L in base diluent, Day 0",81.36 ± 2.05%
same,Sperm viability %,"dairy goat sperms; 1.5 g/L in base diluent, Day 0",84.12 ± 2.15%
same,Semen motility %,dairy goat sperms; [4],47.32 ± 2.41^c %
same,Sperm viability %,dairy goat sperms; [4],50.52 ± 2.74^b %
same,Semen motility %,"dairy goat sperms; 2.0 g/L in base diluent, Day 0",81.36 ± 2.05%
same,Sperm viability %,"dairy goat sperms; 2.0 g/L in base diluent, Day 0",84.12 ± 2.15%
same,Semen motility %,dairy goat sperms; [5],45.55 ± 1.52^d %
same,Sperm viability %,dairy goat sperms; [5],45.36 ± 2.31^c %
same,Plasma membrane integrity of sperms,[1]; [6],58.93%
same,"Plasma membrane integrity of sperms, T group vs NC group",[1]; [7],significantly higher
same,Acrosome integrity of sperms,tupping ram sperms; [6],60.12%
same,"Acrosome integrity of sperms, T group vs NC group",tupping ram sperms; [7],significantly higher
same,"GSH-Px, T group vs NC group",sperms; day 1 of preservation,not significantly different
same,"MDA, T group vs NC group",sperms; day 1 of preservation,not significantly different
same,"T-AOC, T group vs NC group",sperms; day 1 of preservation,not significantly different
same,"CAT enzyme activity, T group vs NC group","sperms; day 1 of preservation, P<0.05",significantly increased
same,"Level of ROS, T group vs NC group","sperms; day 1 of preservation, P<0.05",significantly decreased
same,"SOD enzyme activity, T group vs NC group","sperms; day 1 of preservation, P<0.05",significantly increased
same,"Level of CAT, T group vs NC group",sperms; [8],significantly higher
same,"Level of GSH-Px, T group vs NC group",sperms; [8],significantly higher
same,"Level of MDA, T group vs NC group",sperms; [8],significantly lower
same,"Level of ROS, T group vs NC group",sperms; [8],significantly lower
same,"Level of SOD, T group vs NC group",sperms; [8],significantly higher
same,"Level of T-AOC, T group vs NC group",sperms; [8],significantly higher

# Source: patent US20250354127A1, “CRYOPRESERVED DAIRY GOAT SEMEN METABOLITE SCREENING AND DILUENT PREPARATION METHOD” (NORTHWEST A&F UNIVERSITY, priority 2024, published 2025)
